The results in this text go back to patent US10280167B2, “Purine derivatives for the treatment of viral infections” (JANSSEN SCIENCES IRELAND UC, priority 2011, dated 2019).

A value given as a limit tells only on which side of the number the result lay.

The subject of one experiment is HEK-ISRE-luc cells with conditioned media from PBMC. Briefly: Interferon production in human PBMC (PBMC HEK-ISRE-luc LEC). Type of experiment: cell-based. Conditions: Homo sapiens, PBMC, read-out: PBMC HEK-ISRE-luc (LEC). The method, then:
Measurement of Interferon Production in Human PBMC (PBMC HEK-ISRE-Luc LEC)
Activation of human TLR7 results in robust production of interferon by plasmacytoid dendritic cells present in human blood. The potential of compounds to induce interferon was evaluated by determination of interferon in the conditioned media from peripheral blood mononuclear cells (PBMC). The presence of interferon in the samples was determined, using an interferon reporter cell line stably expressing an interferon-stimulated responsive elements (ISRE)-luc reporter construct. The ISRE element with sequence GAAACTGAAACT (SEQ ID NO: 1) is highly responsive to the STAT1-STAT2-IRF9 transcription factor, which becomes activated upon binding of IFN-I to the IFN receptor. Briefly, PBMCs were prepared from buffy coats of at least two donors using a standard Ficoll centrifugation protocol. Isolated PBMCs were resuspended in RPMI medium supplemented with 10% human AB serum and 2×10^5 cells/well were dispensed into 384-well plates containing compounds (70 μL total volume). After overnight incubation of the PBMCs with the compounds, 10 μL of supernatant was transferred to 384-well plates containing 5×10^3 HEK-ISRE-luc cells/well in 30 μL (plated the day before). Following 24 hours of incubation, activation of the ISRE elements was measured by assaying luciferase activity using 40 μL/well Steady Lite Plus substrate (Perkin Elmer) and measured with ViewLux ultraHTS microplate imager (Perkin Elmer). The stimulating activity of each compound on the HEK-ISRE-luc cells was reported as LEC. The LEC in turn indicates the degree of ISRE activation on transfer of a defined amount of PBMC culture medium.
Recombinant interferon alfa-2a (Roferon-A) was used as a standard control compound.
With `CCOP(=O)(Cc1cccc(Cn2c(=O)[nH]c3c(N)nc(-n4cccn4)nc32)c1)OCC` [Compound 40], the minimal effective concentration was found to be 0.01 µM.
The same measure, in the same setting: then `CCOP(=O)(CCCn1ccnc1-c1nc(N)c2[nH]c(=O)n(Cc3ccccc3)c2n1)OCC` [Compound 47], with 1.64 µM.

The same experiment, now with this note: Homo sapiens, PBMC; lowest effective concentration; read-out: PBMC HEK-ISRE-luc (LEC).
Regarding `Nc1nc(-n2cccn2)nc2c1[nH]c(=O)n2Cc1cccc(CO)c1` [Compound 39], the minimal effective concentration is 0.01 µM.
Same read-out and setting: the result for `Cl.Nc1nc(-n2cccn2)nc2c1[nH]c(=O)n2Cc1cccc(CP(=O)(O)O)c1` [Compound 41] reads 0.4 µM; that for `Nc1nc(-c2ccn[nH]2)nc2c1[nH]c(=O)n2Cc1cccc(CO)c1` [Compound 46], 0.03 µM.
Same read-out and setting: the result for `Nc1nc(-c2ccn[nH]2)nc2c1[nH]c(=O)n2Cc1cccc(C(=O)O)c1` [Compound 45] reads 1.37 µM; that for `COC(=O)c1cccc(Cn2c(=O)[nH]c3c(N)nc(-c4ccn[nH]4)nc32)c1` [Compound 44], 0.04 µM; that for `COc1ccnc(Cn2c(=O)[nH]c3c(N)nc(-n4cccn4)nc32)c1OC` [Compound 49], 0.06 µM.
Still for that read-out and setting: the result for `Cc1ccc(Cn2c(=O)[nH]c3c(N)nc(-n4cccn4)nc32)cn1` [Compound 50] reads 0.01 µM.
As to `Nc1nc(-n2cccn2)nc2c1[nH]c(=O)n2Cc1cccc(C(=O)O)c1` [Compound 38], the minimal effective concentration was above 25 µM.
The same measure, in the same setting: then `COC(=O)c1cccc(Cn2c(=O)[nH]c3c(N)nc(-n4cccn4)nc32)c1` [Compound 37], with 0.01 µM; and `Nc1nc(-c2ccn(CCO)n2)nc2c1[nH]c(=O)n2Cc1ccccc1` [Compound 52], with 0.42 µM; and `Nc1nc(-n2cccn2)nc2c1[nH]c(=O)n2Cc1cn2ccccc2n1` [Compound 48], with 0.01 µM.
For `Nc1nc(-c2ccn[nH]2)nc2c1[nH]c(=O)n2Cc1cn2ccccc2n1` [Compound 43], the minimal effective concentration is 0.15 µM.
On the same count and under the same terms, the result for `Nc1nc(-c2cc(C3CC3)n[nH]2)nc2c1[nH]c(=O)n2Cc1ccccc1` [Compound 51] reads 0.17 µM.

Another experiment deals with human TLR7 (Homo sapiens (Human), UniProt Q9NYK1). Briefly: Reporter assay for TLR7 activity, HEK293 transiently transfected with wild type TLR7 and NFκB-luc. Conditions: lowest effective concentration; 48 h transfection. Type of experiment: cell-based. (In general: In a reporter assay the amount or activity of a reporter protein is the signal.)
Sequence of human TLR7 (Q9NYK1 27-1049): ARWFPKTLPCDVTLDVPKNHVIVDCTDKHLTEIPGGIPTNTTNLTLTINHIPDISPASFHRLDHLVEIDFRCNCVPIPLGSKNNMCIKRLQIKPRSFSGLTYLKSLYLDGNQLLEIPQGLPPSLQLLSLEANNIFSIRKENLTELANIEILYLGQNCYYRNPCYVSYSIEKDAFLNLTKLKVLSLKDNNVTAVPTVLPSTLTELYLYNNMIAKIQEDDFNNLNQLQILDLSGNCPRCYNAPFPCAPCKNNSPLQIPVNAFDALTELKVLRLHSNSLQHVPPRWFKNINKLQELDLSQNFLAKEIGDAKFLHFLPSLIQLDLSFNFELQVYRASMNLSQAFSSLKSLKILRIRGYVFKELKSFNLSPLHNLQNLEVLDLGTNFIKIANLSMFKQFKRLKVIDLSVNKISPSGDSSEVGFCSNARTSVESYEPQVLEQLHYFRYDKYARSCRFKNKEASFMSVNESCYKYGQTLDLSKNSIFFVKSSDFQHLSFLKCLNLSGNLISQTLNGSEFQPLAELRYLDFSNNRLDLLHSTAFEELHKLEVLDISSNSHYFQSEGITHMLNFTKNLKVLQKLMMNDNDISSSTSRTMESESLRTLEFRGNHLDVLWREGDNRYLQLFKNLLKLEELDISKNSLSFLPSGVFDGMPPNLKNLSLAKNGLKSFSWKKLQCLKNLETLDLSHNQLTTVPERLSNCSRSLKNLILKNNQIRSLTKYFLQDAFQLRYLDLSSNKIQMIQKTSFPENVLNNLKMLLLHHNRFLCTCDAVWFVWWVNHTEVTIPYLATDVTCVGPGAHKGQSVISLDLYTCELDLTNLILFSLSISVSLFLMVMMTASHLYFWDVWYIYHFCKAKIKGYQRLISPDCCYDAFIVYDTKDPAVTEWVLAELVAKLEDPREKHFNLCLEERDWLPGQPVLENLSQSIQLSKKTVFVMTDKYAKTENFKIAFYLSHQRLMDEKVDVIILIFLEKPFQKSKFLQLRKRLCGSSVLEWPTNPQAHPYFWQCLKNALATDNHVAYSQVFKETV
As for `Nc1nc(-n2cccn2)nc2c1[nH]c(=O)n2Cc1cccc(CO)c1` [Compound 39], the “TLR7-wt_LEC 48 h” value is 0.05 µM.
Regarding `Cl.Nc1nc(-n2cccn2)nc2c1[nH]c(=O)n2Cc1cccc(CP(=O)(O)O)c1` [Compound 41], the “TLR7-wt_LEC 48 h” value came out at 0.03 µM.
For the molecule `Nc1nc(-c2ccn[nH]2)nc2c1[nH]c(=O)n2Cc1cccc(CO)c1` [Compound 46], the “TLR7-wt_LEC 48 h” value stood at 0.21 µM.
Still for that read-out and setting: the result for `Nc1nc(-c2ccn[nH]2)nc2c1[nH]c(=O)n2Cc1cccc(C(=O)O)c1` [Compound 45] reads 0.58 µM; that for `COC(=O)c1cccc(Cn2c(=O)[nH]c3c(N)nc(-c4ccn[nH]4)nc32)c1` [Compound 44], 0.10 µM; that for `COc1ccnc(Cn2c(=O)[nH]c3c(N)nc(-n4cccn4)nc32)c1OC` [Compound 49], 0.31 µM.
The same measure, in the same setting: the result for `Cc1ccc(Cn2c(=O)[nH]c3c(N)nc(-n4cccn4)nc32)cn1` [Compound 50] reads 0.03 µM; that for `Nc1nc(-n2cccn2)nc2c1[nH]c(=O)n2Cc1cccc(C(=O)O)c1` [Compound 38], 0.38 µM; that for `COC(=O)c1cccc(Cn2c(=O)[nH]c3c(N)nc(-n4cccn4)nc32)c1` [Compound 37], 0.05 µM.
The same measure, in the same setting: then `CCOP(=O)(Cc1cccc(Cn2c(=O)[nH]c3c(N)nc(-n4cccn4)nc32)c1)OCC` [Compound 40], with 0.03 µM; and `CCOP(=O)(CCCn1ccnc1-c1nc(N)c2[nH]c(=O)n(Cc3ccccc3)c2n1)OCC` [Compound 47], with 14.12 µM; and `Nc1nc(-c2ccn(CCO)n2)nc2c1[nH]c(=O)n2Cc1ccccc1` [Compound 52], with 4.42 µM.
For `Nc1nc(-n2cccn2)nc2c1[nH]c(=O)n2Cc1cn2ccccc2n1` [Compound 48], the “TLR7-wt_LEC 48 h” value came to 0.01 µM.
As for `Nc1nc(-c2ccn[nH]2)nc2c1[nH]c(=O)n2Cc1cn2ccccc2n1` [Compound 43], the “TLR7-wt_LEC 48 h” value came out at 0.50 µM.
Still for that read-out and setting: the result for `Nc1nc(-c2cc(C3CC3)n[nH]2)nc2c1[nH]c(=O)n2Cc1ccccc1` [Compound 51] reads 0.16 µM.

In another experiment the test system is human TLR7 dIRR2 mutant. Briefly: Reporter assay for TLR7 activity, HEK293 transfected with mutant TLR7 (dIRR2 deletion) and NFκB-luc. It counts as cell-based. As to conditions: lowest effective concentration; 48 h transfection.
Take `Nc1nc(-c2ccn(CCO)n2)nc2c1[nH]c(=O)n2Cc1ccccc1` [Compound 52]: the “TLR7-dIRR2_LEC 48 h” value is 0.41 µM.
